The text below walks through data of patent US20090227547A1, “Novel salt form of a Beta2-adrenergic agonist quinolin-2-one derivative” (Glaxo Group Limited, priority 2005, published 2009).

What all share (type): physicochemical
The nature of series [1]: solubility in solvents (crystallisation antisolvents). The settings on record: in a wide range of solvents usable as antisolvents (water, tetrahydrofuran, lower alcohols, acetone).
A short description of a further series: hygroscopicity.
A short description of series [2]: physical and chemical stability on storage. The note with it: general statement.

Consider “N-[2-[4-[(3-phenyl-4-methoxyphenyl)amino]phenyl]ethyl]-(R)-2-hydroxy-2-(8-hydroxy-1,2-dihydro-2-oxoquinolin-5-yl)ethylammonium 2,5-dichlorobenzenesulfonate”, for which the solubility result in series [1] is “limited solubility”. The hygroscopicity entry in the series “hygroscopicity” is recorded as “substantially non-hygroscopic”. Also, the “physical and chemical stability on storage” value in series [2] is “good physical and chemical stability on storage”.
